Three molecules from patent EP1743642A1 (priority 2005, dated 2007) can be followed below.

In assay [1] the target is T1, transfected human CB2 receptors (Homo sapiens, UniProt P34972).
T1 construct: purchased Receptor Biology, Inc
In words: In-vitro determination of affinity to CB2 receptor (radioligand [3H]-CP55940). Format: binding. How it is done:
(§1) I. In-vitro determination of affinity to CB1/CB2-Receptors
(§2) The in-vitro determination of the affinity of the inventive substituted pyrazoline compounds to CB1/CB2-Rezeptors is carried out as described in the publication of Ruth A. Ross, Heather C. Brockie et al., "Agonist-inverse agonist characterization at CB1 and CB2 cannabinoid receptors of L-759633, L759656 and AM630", British Journal of Pharmacology, 126, 665-672, (1999), whereby the transfected human CB1 and CB2 receptors of Receptor Biology, Inc. are used. The radioligand used for both receptors is [^3H]-CP55940. The respective parts of the description is hereby incorporated by reference and forms part of the present disclosure.

Assay [2] relates to cannabinoid receptors. In words: Mouse tetrad model, antagonistic effect against Win 55212-2. Format: in vivo, Male NMRI mice. To be noted: 5 mg/kg i.v. prior to Win 55212-2 in a dose of 1,25mg/kg i.v. An excerpt:
(§3) Substances with affinity for cannabinoid receptors are known to produce a wide range of pharmacological effects. It is also known that intravenous administration of a substance with affinity for cannabinoid receptors in mice produces analgesia , hypothermia, sedation and catalepsy. Individually, none of these effects can be considered as proof that a tested substance has affinity for cannabinoid-receptors, since all of these effects are common for various classes of centrally active agents. However, substances, which show all of these effects, i.e. substances that are active in this so-called tetrad model are considered to have affinity for the cannabinoid receptors. It has further been shown that cannabinoid receptor antagonists are higly effective in blocking the effects of a cannabinoid agonist in the mouse tetrad model.
(§4) The tetrad model is described, for example, in the publication of A. C. Howlett et al, International Union of Pharmacology XXVII. Classification of Cannabinoid Receptors, Pharmacol Rev 54, 161-202 , 2002 and David R. Compton et al., "In-vivo Characterization of a Specific Cannabinoid Receptor Antagonist (SR141716A) :Inhibition of Tetrahydrocannbinol- induced Responses and Apparent Agonist Activity", J. Pharmacol. Exp. Ther. 277 , 2, 586-594, 1996. The corresponding parts of the description are hereby incorporated by reference.
(§5) Male NMRI mice with a weight of 20-30 g (Harlan, Barcelona, Spain) are used in all of the following experiments.
(§6) Before testing in the behavioral procedures given below, mice are acclimatized to the experimental setting. Pre-Treatment control values are determined for analgesia hot plate latency (in seconds), rectal temperature, sedation and catalepsy.
(§7) In order to determine the agonistic activty of the substance to be tested, the mice are injected intravenously with the substance to be tested or the vehicle alone. 15 minutes after injection, latency in hot plate analgesia is measured.
(§8) Rectal temperature, sedation and catalepsy are measured 20 minutes after injection.
In order to determine the antagonistic activity the identical procedure is used as for the determination of the agonistic effects, but with the difference that the substance to be evaluated for its antagonistic activity is injectected 5 minutes before the intravenous injection of 1.25 mg/kg Win-55,212 a known cannabinoid-receptor agonist.
(§9) The hot plate analgesia is determined according to the method described in Woolfe D. et al. "The evaluation of analgesic action of pethidine hydrochloride (Demerol)", J. Pharmacol. Exp. Ther. 80, 300-307,1944. The respective description is hereby incorporated by reference and forms part of the present disclosure.
(§10) The mice are placed on a hot plate (Harvard Analgesimeter) at 55 ± 0.5 °C until they show a painful sensation by licking their paws or jumping and the time for these sensations to occur is recorded. This reading is considered the basal value (B). The maximum time limit the mice are allowed to remain on the hot plate in absence of any painful response is 40 seconds in order to prevent skin damage. This period is called the cut-off time (PC).
(§11) Fifteen minuts after the administration of the substance to be tested, the mice are again placed on the hot plate and the afore described procedure is repeated. This period is called the post-treatment reading (PT).
(§12) The degree of analgesia is calculated from the formula : %MPEof Analgesia = (PT−B)/(PC−B) × 100 [formula] MPE = Maximum possible effect.
(§13) Sedation and ataxia is determined according to the method described in Desmet L. K. C. et al. "Anticonvulsive properties of Cinarizine and Flunarizine in Rats and Mice", Arzneim. -Forsch. (Frug Res) 25, 9, 1975. The respective description is hereby incorporated by reference and forms part of the present disclosure.
The chosen scoring system is • 0: no ataxia; • 1: doubful; • 2: obvious calmness and quiet; • 3 pronounced ataxia; • prior to as well as after treatment. […]

Assay [3] has as its target T2, transfected human CB1 receptors (Homo sapiens, UniProt P21554).
T2 construct: purchased Receptor Biology, Inc
Briefly: In-vitro determination of affinity to CB1 receptor (radioligand [3H]-CP55940). In kind it is binding. Here is the method:
as §1, §2

Assay [4] has as its system cannabinoid receptors. Briefly: Mouse tetrad model, agonistic effect. In kind it is in vivo, Male NMRI mice. Also on record: key to Agonistic effect D: Sedation: % of sedation = mean score (0–3 scale)/3 × 100. To be noted: 5 mg/kg i.v.
Text: as §3, §4, §5, §6, §7, §8, §9, §10, §11, §12, §13
The chosen scoring system is • 0: no ataxia; • 1: doubful; • 2: obvious calmness and quiet; • 3 pronounced ataxia; • prior to as well as after treatment.
The percentage of sedation is determined according to the formula: %of sedation = arithmetic mean/3 × 100 [formula] […]

The nature of assay [5]: In-vivo testing for regulation of triglycerides in blood, obese mice on high fat diet (study V). To be noted: 30 mg/kg/day po, 14 days. Set-up: species or system male mice B6 Lep ob/ob. From the text: The study was done using six weeks old male mice B6 Lep ob/ob, obtained from Charles River (France). Mice were divided in 3 groups : I (control), II (vehicle), III (example 0).
The animals of the group I received the standard diet (D-12450B, Research Diets, NJ, USA).
The animals of the groups II and III were fed with a High Fat Diet (D-12492, Research Diets, NJ, USA), in both cases for 7 weeks (References 1 and 2).
The animals of the groups III were fed with a High Fat Diet (D-12492, Research Diets, NJ, USA), in both cases for 7 weeks (References 1 and 2).
At the end of the feeding period of 7 weeks, it was started the treatment period (14 days): Group II mice received the vehicle (10 ml/kg/day, po, of the aqueous solution of acacia gum, 5% W/V). Group III was administered with 30 mg/kg/day, po, of the inventive compound 5-(4-chlorophenyl)-1-(2,4-dichlorophenyl)-4,5-dihydro-pyrazole-3-carboxylic acid according to Example 0. Group I didn't received any treatment. The three groups of mice had the same diet than in the previous period.
At the end of the 14 days period of treatment, the blood levels of triglicerides of the animals were determined. […]

A short description of assay [6]: In-vivo testing for regulation of triglycerides in blood, diet-induced obese mice (study VI). To be noted: high fat diet, 30 mg/kg/day p.o., day 28 after beginning of the treatment; p<0.005 vs. vehicle. Here is the method: In a second set of experiments carried out similar to the tests shown above the TG (triglyceride) levels of diet-induced obese mice in blood were determined. Mice receiving a high fat diet were - after a feeding period of […] - either treated p.o. with vehicle (0,5 % HPMC) or with the compound according to example 0 (30 mg/kg/day p.o.). TG levels in blood were determined on day 28 after beginning of the treatment.

T1 sequence (P34972 whole entry): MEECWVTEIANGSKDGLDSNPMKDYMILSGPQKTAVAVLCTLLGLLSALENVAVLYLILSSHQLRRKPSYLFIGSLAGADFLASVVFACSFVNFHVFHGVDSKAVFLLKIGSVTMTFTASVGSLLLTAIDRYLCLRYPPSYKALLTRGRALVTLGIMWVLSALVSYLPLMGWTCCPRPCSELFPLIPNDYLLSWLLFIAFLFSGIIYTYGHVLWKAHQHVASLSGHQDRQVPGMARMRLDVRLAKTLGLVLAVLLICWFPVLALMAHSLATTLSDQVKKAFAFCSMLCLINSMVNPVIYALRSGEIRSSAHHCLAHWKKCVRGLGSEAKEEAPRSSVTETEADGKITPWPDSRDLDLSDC
T2 sequence (P21554 whole entry): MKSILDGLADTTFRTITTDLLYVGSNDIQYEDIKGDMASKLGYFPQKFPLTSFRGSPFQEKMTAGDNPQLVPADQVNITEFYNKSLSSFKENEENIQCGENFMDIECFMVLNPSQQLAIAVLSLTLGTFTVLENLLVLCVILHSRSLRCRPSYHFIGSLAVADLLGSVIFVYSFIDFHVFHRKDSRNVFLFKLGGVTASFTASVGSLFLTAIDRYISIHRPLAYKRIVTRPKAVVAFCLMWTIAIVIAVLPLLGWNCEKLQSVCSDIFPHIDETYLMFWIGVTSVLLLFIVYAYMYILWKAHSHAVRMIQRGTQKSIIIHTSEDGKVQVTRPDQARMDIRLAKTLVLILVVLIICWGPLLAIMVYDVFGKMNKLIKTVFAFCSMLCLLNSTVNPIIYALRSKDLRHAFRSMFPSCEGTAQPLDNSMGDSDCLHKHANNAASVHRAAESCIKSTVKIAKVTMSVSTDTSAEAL

With `O=C(NN1CCCCC1)C1=NN(c2ccc(Cl)cc2Cl)C(c2ccc(Cl)cc2)C1` (stereo not shown) [Example 1, N-piperidinyl-5-(4-chlorophenyl)-1-(2,4-dichlorophenyl)-4,5-dihydro-1H-pyrazole-3-carboxamide], the Ki (usually a dissociation constant, usually derived from enzyme kinetics or from competition with a known ligand) in assay [1] was over 1000 nM. Moreover, in the assay on cannabinoid receptors [2], the “Antagonistic Effect A: Hot-Plate test” value was found to be 74, the “Antagonistic Effect B: Hypothermia” value was determined as 100, the “Antagonistic Effect C: Catalepsy” value turned out to be 100 and the “Antagonistic Effect D: Sedation” value amounted to 100. This molecule came in with a Ki in assay [3] of under 25 nM. In addition, in the assay on cannabinoid receptors [4], the “Agonistic effect A: Hot-Plate test” value came to 0, the “Agonistic effect B: Hypothermia” value is on record as 0, the “Agonistic effect C: Catalepsy” value was determined as 0 and the “Agonistic effect D: Sedation” value was found to be 0.

For `O=C(O)C1=NN(c2ccc(Cl)cc2Cl)C(c2ccc(Cl)cc2)C1` (stereo not shown) [Example 0, 5-(4-chlorophenyl)-1-(2,4-dichlorophenyl)-4,5-dihydro-pyrazole-3-carboxylic acid], the “Triglicerides, whole blood levels (mg/dl)” value in assay [5] (N.S. compared with Group I) was 67.5 (N.S.) mg/dl. Also, in assay [5] (triglicerides relative to Group I (standard diet = 100%)), the Relative levels came to 110.6%. Besides, the “TG (triglyceride) levels” value in assay [6] came out at 0.80 ± 0.07 mmol/L.

In assay [1], `O=C(C1=NN(c2ccc(Cl)cc2Cl)C(c2ccc(Cl)cc2)C1)N1CCCCC1` (stereo not shown) [Example 5, [5-(4-Chloro-phenyl)-1-(2,4-dichloro-phenyl)-4,5-dihydro-1H-pyrazol-3-yl]-piperidin-1-yl-methanone] showed a Ki of about 1000 nM. Also, in the assay on cannabinoid receptors [2], the “Antagonistic Effect A: Hot-Plate test” value amounted to 50, the “Antagonistic Effect B: Hypothermia” value was 40, the “Antagonistic Effect C: Catalepsy” value amounted to 20 and the “Antagonistic Effect D: Sedation” value is 20. Besides, in the assay with cannabinoid receptors [4], the “Agonistic effect A: Hot-Plate test” value was 0, the “Agonistic effect B: Hypothermia” value was 50, the “Agonistic effect C: Catalepsy” value worked out at 0 and the “Agonistic effect D: Sedation” value turned out to be 0.
